US9580390B2, “Indazole compounds as kinase inhibitors and method of treating cancer with same” (University Health Network, priority 2011, dated 2017)

Test system: colon cancer cells (HCT116)
Assay: Cancer cell line growth inhibition (SRB assay)
Format: cell-based
Conditions: Homo sapiens, HCT-116; HCT116 colon cancer cells, SRB assay; read-out: Cancer Cell Line GI50 Range HCT116

Row | Structure (SMILES) | GI50 [nM]
1 | C[C@@H](NC(=O)c1ccc2[nH]nc(-c3ccc(N4CCOCC4)cc3)c2c1)C1CCCCC1 [Example A48, (R)-N-(1-cyclohexylethyl)-3-(4-morpholinophenyl)-1H-indazole-5-carboxamide] | > 500
2 | CN1CCC(Oc2ccc(-c3n[nH]c4ccc(NC(=O)Nc5ccccc5Cl)cc34)cc2)CC1 [Example A62, 1-(2-chlorophenyl)-3-(3-(4-((1-methylpiperidin-4-yl)oxy)phenyl)-1H-indazol-5-yl)urea] | > 500
3 | CC[C@@H](NC(=O)c1ccc2[nH]nc(-c3ccc(N4CCOCC4)cc3)c2c1)c1cccs1 [Example A58, (R)-3-(4-morpholinophenyl)-N-(1-(thiophen-2-yl)propyl)-1H-indazole-5-carboxamide] | 100 to 500
4 | O=C(Nc1ccc2[nH]nc(-c3cccc(CN4CCOCC4)c3)c2c1)C(c1ccsc1)N1CCCC1 (stereo not shown) [Example A1, N-(3-(3-(morpholinomethyl)phenyl)-1H-indazol-5-yl)-2-(pyrrolidin-1-yl)-2-(thiophen-3-yl)acetamide] | > 500
5 | CN1CCC(Oc2ccc(-c3n[nH]c4ccc(C(=O)N[C@@H]5CCCc6ccccc65)cc34)cc2)CC1 [Example A26, (R)-3-(4-((1-methylpiperidin-4-yl)oxy)phenyl)-N-(1,2,3,4-tetrahydronaphthalen-1-yl)-1H-indazole-5-carboxamide] | 100 to 500
6 | O=C(Nc1ccc2[nH]nc(-c3ccc(CN4CCOCC4)cc3)c2c1)C(c1ccsc1)N1CCCC1 (stereo not shown) [Example A3, N-(3-(4-(morpholinomethyl)phenyl)-1H-indazol-5-yl)-2-(pyrrolidin-1-yl)-2-(thiophen-3-yl)acetamide] | 100 to 500
7 | O=C(Nc1ccc2[nH]nc(-c3ccc(N4CCOCC4)cc3)c2c1)C1CCCc2ccccc21 (stereo not shown) [Example A22, N-(3-(4-morpholinophenyl)-1H-indazol-5-yl)-1,2,3,4-tetrahydronaphthalene-1-carboxamide] | 100 to 500
8 | Cc1cc(C)c(NC(=O)Nc2ccc3[nH]nc(-c4ccc(OC5CCN(C)CC5)cc4)c3c2)c(Cl)c1 [Example A77, 1-(2-chloro-4,6-dimethylphenyl)-3-(3-(4-((1-methylpiperidin-4-yl)oxy)phenyl)-1H-indazol-5-yl)urea] | 100 to 500
9 | C[C@@H](NC(=O)c1ccc2[nH]nc(-c3ccc(N4CCOCC4)cc3)c2c1)c1cccs1 [Example A53, (R)-3-(4-morpholinophenyl)-N-(1-(thiophen-2-yl)ethyl)-1H-indazole-5-carboxamide] | 100 to 500
10 | CN1CCN(c2ccc(-c3n[nH]c4ccc(NC(=O)C5CCCc6ccccc65)cc34)cc2)CC1 (stereo not shown) [Example A11, N-(3-(4-(4-methylpiperazin-1-yl)phenyl)-1H-indazol-5-yl)-1,2,3,4-tetrahydronaphthalene-1-carboxamide] | 100 to 500
11 | CN1CCc2cc(-c3n[nH]c4ccc(NC(=O)C(c5ccsc5)N5CCCC5)cc34)ccc21 (stereo not shown) [Example A16, N-(3-(1-methylindolin-5-yl)-1H-indazol-5-yl)-2-(pyrrolidin-1-yl)-2-(thiophen-3-yl)acetamide] | 100 to 500
12 | CN(c1ccc(-c2n[nH]c3ccc(NC(=O)C(c4ccsc4)N4CCCC4)cc23)cc1)C1CCOCC1 (stereo not shown) [Example A78, N-(3-(4-(methyl(tetrahydro-2H-pyran-4-yl)amino)phenyl)-1H-indazol-5-yl)-2-(pyrrolidin-1-yl)-2-(thiophen-3-yl)acetamide] | < 100
13 | C[C@H]1CCCN1[C@H](C(=O)Nc1ccc2[nH]nc(-c3ccc(N4CCOCC4)cc3)c2c1)c1ccsc1 [Example A47, (S)-2-((S)-2-methylpyrrolidin-1-yl)-N-(3-(4-morpholinophenyl)-1H-indazol-5-yl)-2-(thiophen-3-yl)acetamide] | 100 to 500
14 | O=C(Nc1ccc2[nH]nc(-c3ccc(NC4CCCC4)cc3)c2c1)C(c1ccsc1)N1CCCC1 (stereo not shown) [Example A70, N-(3-(4-(cyclopentylamino)phenyl)-1H-indazol-5-yl)-2-(pyrrolidin-1-yl)-2-(thiophen-3-yl)acetamide] | 100 to 500
15 | COc1cc(-c2n[nH]c3ccc(C(=O)NC(c4ccccc4)C4CC4)cc23)ccc1OC1CCNCC1 (stereo not shown) [Example A13, N-(cyclopropyl(phenyl)methyl)-3-(3-methoxy-4-(piperidin-4-yloxy)phenyl)-1H-indazole-5-carboxamide] | 100 to 500
16 | COc1cc(-c2n[nH]c3ccc(NC(=O)C(c4ccsc4)N4CCCC4)cc23)ccc1N1CCN(C)CC1 (stereo not shown) [Example A10, N-(3-(3-methoxy-4-(4-methylpiperazin-1-yl)phenyl)-1H-indazol-5-yl)-2-(pyrrolidin-1-yl)-2-(thiophen-3-yl)acetamide] | 100 to 500
17 | CN1CCOc2cc(-c3n[nH]c4ccc(NC(=O)C(c5ccsc5)N5CCCC5)cc34)ccc21 (stereo not shown) [Example A17, N-(3-(4-methyl-3,4-dihydro-2H-benzo[b][1,4]oxazin-7-yl)-1H-indazol-5-yl)-2-(pyrrolidin-1-yl)-2-(thiophen-3-yl)acetamide] | > 500
18 | COc1cc(-c2n[nH]c3ccc(NC(=O)C(c4ccsc4)N4CCCC4)cc23)ccc1OC1CCN(C)CC1 (stereo not shown) [Example A21, N-(3-(3-methoxy-4-((1-methylpiperidin-4-yl)oxy)phenyl)-1H -indazol-5-yl)-2-(pyrrolidin-1-yl)-2-(thiophen-3-yl)acetamide] | < 100
19 | COc1cc(-c2n[nH]c3ccc(C(=O)NC(c4ccccc4)C4CC4)cc23)ccc1OC1CCN(C)CC1 (stereo not shown) [Example A19, N-(cyclopropyl(phenyl)methyl)-3-(3-methoxy-4-((1-methylpiperidin-4-yl)oxy)phenyl)-1H-indazole-5-carboxamide] | 100 to 500
20 | O=C(Nc1ccc2[nH]nc(-c3ccc(NC4CCCCC4)cc3)c2c1)C(c1ccsc1)N1CCCC1 (stereo not shown) [Example A68, N-(3-(4-(cyclohexylamino)phenyl)-1H-indazol-5-yl)-2-(pyrrolidin-1-yl)-2-(thiophen-3-yl)acetamide] | > 500
21 | O=C(Nc1ccc2[nH]nc(-c3ccc(CCN4CCOCC4)cc3)c2c1)C(c1ccsc1)N1CCCC1 (stereo not shown) [Example A6, N-(3-(4-(2-morpholinoethyl)phenyl)-1H-indazol-5-yl)-2-(pyrrolidin-1-yl)-2-(thiophen-3-yl)acetamide] | 100 to 500
22 | O=C(Nc1ccc2[nH]nc(-c3ccc4c(c3)OCCCO4)c2c1)C(c1ccsc1)N1CCCC1 (stereo not shown) [Example A20, N-(3-(3,4-dihydro-2H-benzo[b][1,4]dioxepin-7-yl)-1H-indazol-5-yl)-2-(pyrrolidin-1-yl)-2-(thiophen-3-yl)acetamide] | 100 to 500
23 | CN1CCN(Cc2ccc(-c3n[nH]c4ccc(NC(=O)C(c5ccsc5)N5CCCC5)cc34)cc2)CC1 (stereo not shown) [Example A67, N-(3-(4-((4-methylpiperazin-1-yl)methyl)phenyl)-1H-indazol-5-yl)-2-(pyrrolidin-1-yl)-2-(thiophen-3-yl)acetamide] | 100 to 500
24 | CN1CCC(Oc2ccc(-c3n[nH]c4ccc(C(=O)NCC(c5ccsc5)N5CCOCC5)cc34)cc2)CC1 (stereo not shown) [Example A75, 3-(4-((1-methylpiperidin-4-yl)oxy)phenyl)-N-(2-morpholino-2-(thiophen-3-yl)ethyl)-1H-indazole-5-carboxamide] | 100 to 500

Next, values leading:

Row | GI50 [nM] | Structure (SMILES)
25 | < 100 | COC(C(=O)Nc1ccc2[nH]nc(-c3ccc(OC4CCN(C)CC4)cc3)c2c1)c1ccsc1 (stereo not shown) [Example A37, 2-methoxy-N-(3-(4-((1-methylpiperidin-4-yl)oxy)phenyl)-1H-indazol-5-yl)-2-(thiophen-3-yl)acetamide]
26 | < 100 | C[C@H](NC(=O)c1ccc2[nH]nc(-c3ccc(OC4CCN(C)CC4)cc3)c2c1)C1CCCCC1 [Example A38, (S)-N-(1-cyclohexylethyl)-3-(4-((1-methylpiperidin-4-yl)oxy)phenyl)-1H-indazole-5-carboxamide]
27 | < 100 | O=C(Nc1ccc2[nH]nc(-c3ccc(OC4CCNCC4)cc3)c2c1)C(c1ccsc1)N1CCCC1 (stereo not shown) [Example A28, N-(3-(4-(piperidin-4-yloxy)phenyl)-1H-indazol-5-yl)-2-(pyrrolidin-1-yl)-2-(thiophen-3-yl)acetamide]
28 | < 100 | CN1CCC(Oc2ccc(-c3n[nH]c4ccc(NC(=O)C(c5ccsc5)N5CCCCC5)cc34)cc2)CC1 (stereo not shown) [Example A31, N-(3-(4-((1-methylpiperidin-4-yl)oxy)phenyl)-1H-indazol-5-yl)-2-(piperidin-1-yl)-2-(thiophen-3-yl)acetamide]
29 | < 100 | CN1CCC(Oc2ccc(-c3n[nH]c4ccc(NC(=O)Nc5c(Cl)cccc5Cl)cc34)cc2)CC1 [Example A76, 1-(2,6-dichlorophenyl)-3-(3-(4-((1-methylpiperidin-4-yl)oxy)phenyl)-1H-indazol-5-yl)urea]
30 | < 100 | C[C@H]1CCCN1[C@H](C(=O)Nc1ccc2[nH]nc(-c3ccc(N4CCOCC4)cc3)c2c1)c1cccs1 [Example A79, (R)-2-((S)-2-methylpyrrolidin-1-yl)-N-(3-(4-morpholinophenyl)-1H-indazol-5-yl)-2-(thiophen-2-yl)acetamide]
31 | < 100 | CC(C)N1CCC(Oc2ccc(-c3n[nH]c4ccc(NC(=O)C(c5ccsc5)N5CCCC5)cc34)cc2)CC1 (stereo not shown) [Example A30, N-(3-(4-((1-isopropylpiperidin-4-yl)oxy)phenyl)-1H-indazol-5-yl)-2-(pyrrolidin-1-yl)-2-(thiophen-3-yl)acetamide]
32 | < 100 | O=C(Nc1ccc2[nH]nc(-c3ccc(OCCN4CCCC4)cc3)c2c1)C(c1ccsc1)N1CCCC1 (stereo not shown) [Example A44, 2-(pyrrolidin-1-yl)-N-(3-(4-(2-(pyrrolidin-1-yl)ethoxy)phenyl)-1H-indazol-5-yl)-2-(thiophen-3-yl)acetamideamide]
33 | < 100 | CN1CCC(Oc2ccc(-c3n[nH]c4ccc(NC(=O)C(c5ccsc5)N5CCCC5)cc34)cc2N)CC1 (stereo not shown) [Example A80, N-(3-(3-amino-4-((1-methylpiperidin-4-yl)oxy)phenyl)-1H-indazol-5-yl)-2-(pyrrolidin-1-yl)-2-(thiophen-3-yl)acetamide]
34 | < 100 | O=C(Nc1ccc2[nH]nc(-c3ccc(N4CCOCC4)cc3)c2c1)C(c1ccsc1)N1CCCCC1 (stereo not shown) [Example A32, N-(3-(4-morpholinophenyl)-1H-indazol-5-yl)-2-(piperidin-1-yl)-2-(thiophen-3-yl)acetamide]
